Values of other authors, collected in patent US20010000228A1, “Use of a modified baculovirus containing exogenous nucleic acid for the manufacture of a medicament for delivering said nucleic acid to the hepatocytes” (IMPERIAL COLLEGE INNOVATIONS LIMITED, priority 1997, published 2001).

Tested on: HBV
Settings: therapy against HBV

Substance: Interferon α
- cases in which therapy is effective: around 30%
